Data set [1] deals with Mus musculus. Description: Induction of gut restriction in overnight fasted ICR mouse assessed as effect on gallbladder-filling by measuring gallbladder volume at 50 mg/kg, po and measured after 4 hrs by Vernier caliper analysis. The format is functional, organism-based.
In data set [2] the test system is Mus musculus. Description: Induction of gut restriction in overnight fasted ICR mouse assessed as effect on gallbladder-filling by measuring bile weight at 50 mg/kg, po and measured after 4 hrs by Vernier caliper analysis. The format is functional, organism-based.
In data set [3] the test system is Mus musculus. The experiment in a line: In vivo inhibition of DDP4 in ICR mouse assessed as decrease in enzyme activity in serum at 200 mg/kg,po and measured at 2 hrs using Gly-Pro-AMC as substrate by fluorescence based microplate reader assay. The format is functional, organism-based.
In data set [4] the test system is Mus musculus. Description: In vivo inhibition of DDP4 in ICR mouse assessed as decrease in enzyme activity in serum at 200 mg/kg,po and measured at 4 hrs using Gly-Pro-AMC as substrate by fluorescence based microplate reader assay. It is filed as functional, organism-based.
Data set [5] relates to Mus musculus. The experiment in a line: In vivo inhibition of DDP4 in ICR mouse assessed as decrease in enzyme activity in serum at 200 mg/kg,po and measured after 8 hrs using Gly-Pro-AMC as substrate by fluorescence based microplate reader assay. The format is functional, organism-based.
The test system of data set [6] is Mus musculus. The experiment in a line: In vivo inhibition of DDP4 in ICR mouse assessed as decrease in enzyme activity in ileum at 200 mg/kg,po and measured after 8 hrs using Gly-Pro-AMC as substrate by fluorescence based microplate reader assay. It is filed as functional, organism-based.
For data set [7], the system named is Mus musculus. Description: In vivo inhibition of DDP4 in ICR mouse assessed as decrease in enzyme activity in ileum at 30 mg/kg,po and measured after 8 hrs using Gly-Pro-AMC as substrate by fluorescence based microplate reader assay. It is filed as functional, organism-based.
Data set [8] deals with T1, G-protein coupled bile acid receptor 1 (Homo sapiens, UniProt Q8TDU6).
T1 sequence (Q8TDU6 whole entry): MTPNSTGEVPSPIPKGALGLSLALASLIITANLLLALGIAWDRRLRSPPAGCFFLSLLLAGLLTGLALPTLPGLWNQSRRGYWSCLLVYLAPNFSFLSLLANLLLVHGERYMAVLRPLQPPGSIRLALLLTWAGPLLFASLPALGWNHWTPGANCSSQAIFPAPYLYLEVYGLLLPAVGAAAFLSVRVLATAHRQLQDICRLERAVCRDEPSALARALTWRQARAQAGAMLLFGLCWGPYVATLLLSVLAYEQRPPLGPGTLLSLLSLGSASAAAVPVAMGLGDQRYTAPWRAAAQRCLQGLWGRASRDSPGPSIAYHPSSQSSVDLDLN
Description: Agonist activity at human TGR5 expressed in human HEK293 cells co-expressing CRE-driven luciferase reporter gene assessed as luciferase activity incubated for 5.5 hrs by Steady-Glo based luciferase assay. The format is functional, cell-based. For orientation: A reporter such as luciferase makes a cellular process visible.

Data set [9] concerns the target T2, G-protein coupled bile acid receptor 1 (Mus musculus, UniProt Q80SS6).
T2 sequence (Q80SS6 whole entry): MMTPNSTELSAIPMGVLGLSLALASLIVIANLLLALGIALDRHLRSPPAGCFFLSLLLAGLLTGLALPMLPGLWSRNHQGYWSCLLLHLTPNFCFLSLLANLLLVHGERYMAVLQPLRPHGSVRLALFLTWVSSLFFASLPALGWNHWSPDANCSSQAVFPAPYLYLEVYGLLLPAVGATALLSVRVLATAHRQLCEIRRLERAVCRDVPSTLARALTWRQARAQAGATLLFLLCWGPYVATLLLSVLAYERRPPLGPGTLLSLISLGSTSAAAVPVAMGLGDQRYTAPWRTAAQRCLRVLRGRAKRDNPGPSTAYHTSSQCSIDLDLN
Description: Agonist activity at mouse TGR5 expressed in human HEK293 cells co-expressing CRE-driven luciferase reporter gene assessed as luciferase activity incubated for 5.5 hrs by Steady-Glo based luciferase assay. It is filed as functional, cell-based.

Data set [10] concerns the target Dipeptidyl peptidase 4 (Mus musculus, UniProt P28843). The experiment in a line: Inhibition of mouse serum DPP4 assessed as cleavage of substrate by measuring AMC release using Gly-Pro-AMC as substrate by fluorescence based microplate reader assay. It is filed as cell-free.
Data set [11] in a line: Water solubility at pH 6.8. It is filed as physicochemical.

Calls of active or inactive are those of the source. No cut-off for these calls is given here. A value given as a limit tells only on which side of the number the result lay.

As usually defined, the EC50 is the midpoint of the concentration-response curve. By IC50 is commonly meant the point on the concentration scale where inhibition reaches its midpoint. The term solubility denotes how much of the substance goes into solution per volume.

Dipeptidyl peptidase 4, sequence (P28843 whole entry): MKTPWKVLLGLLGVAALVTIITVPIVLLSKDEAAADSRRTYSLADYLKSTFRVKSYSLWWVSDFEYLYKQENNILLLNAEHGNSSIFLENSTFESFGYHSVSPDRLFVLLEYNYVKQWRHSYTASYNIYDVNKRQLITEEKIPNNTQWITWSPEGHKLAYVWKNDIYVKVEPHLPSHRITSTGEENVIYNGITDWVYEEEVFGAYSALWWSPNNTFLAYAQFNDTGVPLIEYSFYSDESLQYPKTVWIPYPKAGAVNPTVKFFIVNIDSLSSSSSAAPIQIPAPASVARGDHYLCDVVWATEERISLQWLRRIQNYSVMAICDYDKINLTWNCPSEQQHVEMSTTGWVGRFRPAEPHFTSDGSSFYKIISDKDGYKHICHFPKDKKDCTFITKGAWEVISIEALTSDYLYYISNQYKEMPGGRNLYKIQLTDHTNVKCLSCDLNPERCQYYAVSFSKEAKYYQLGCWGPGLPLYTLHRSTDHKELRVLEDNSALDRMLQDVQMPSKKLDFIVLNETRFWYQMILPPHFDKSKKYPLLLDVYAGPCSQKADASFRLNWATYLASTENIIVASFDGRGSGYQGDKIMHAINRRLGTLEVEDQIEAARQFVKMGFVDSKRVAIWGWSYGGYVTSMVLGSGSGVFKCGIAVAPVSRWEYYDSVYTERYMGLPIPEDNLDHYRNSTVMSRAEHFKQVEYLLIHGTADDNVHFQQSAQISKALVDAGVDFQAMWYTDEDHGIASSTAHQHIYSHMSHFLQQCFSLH

Consider `O=C(c1cnccc1Oc1cc(Cl)ccc1Cl)N1CCN(C2CC2)c2ccccc21`, for which the result in data set [1] and in data set [2] was inactive.

As to `N[C@@H](CC(=O)N1CCn2c(nnc2C(F)(F)F)C1)Cc1cc(F)c(F)cc1F`, the inhibition result in data set [3], in data set [4], in data set [5], in data set [6] and in [7] was “Active” in each case.

In the case of `CC1C(=O)N(CC(=O)NCCOCCOCCOCCOCCOCCOCCNC(=O)CCc2cc(Cl)c(Oc3ccsc3C(=O)N3CCN(C4CC4)c4ccccc43)cc2Cl)CCCN1C(=O)C[C@H](N)Cc1cc(F)c(F)cc1F.F` (mixture of isomers), the figures for the concentration for a half-maximal effect (EC50) in data set [8] and in data set [9] were 2.8 nM and 2.3 nM, respectively. Moreover, the IC50 in [10] amounted to 60.1 nM. The compound also came in with a solubility in [11] of 50 µM.

For `CC1C(=O)N(CC(=O)NCCN(C)C(=O)CCc2cc(Cl)c(Oc3ccsc3C(=O)N3CCN(C4CC4)c4ccccc43)cc2Cl)CCCN1C(=O)C[C@H](N)Cc1cc(F)c(F)cc1F` (mixture of isomers), the EC50 in data set [8] stood at 14.9 nM; in data set [9], 6 nM. For the same compound, in data set [10], the concentration for half-maximal inhibition (IC50) worked out at 224 nM.

Turning to `N[C@@H](CC(=O)N1CCCN(CC(=O)NCCOCCOCCOCCNC(=O)CCc2cc(Cl)c(Oc3ccsc3C(=O)N3CCN(C4CC4)c4ccccc43)cc2Cl)C(=O)C1Cc1ccccc1)Cc1cc(F)c(F)cc1F` (mixture of isomers), the figures for the concentration for a half-maximal effect (EC50) in data set [8] and in data set [9] were 6.1 nM and 3.7 nM, respectively. Also, the IC50 in [10] was determined as 113 nM. The compound also registered a solubility in data set [11] of 10 µM.

On to `CC1C(=O)N(CC(=O)NCCOCCOCCOCCOCCOCCOCCOCCOCCNC(=O)CCc2cc(Cl)c(Oc3ccsc3C(=O)N3CCN(C4CC4)c4ccccc43)cc2Cl)CCCN1C(=O)C[C@H](N)Cc1cc(F)c(F)cc1F` (mixture of isomers), for which the EC50 in data set [8] was found to be 3.2 nM; in data set [9], 2.4 nM. Besides, in data set [10], the IC50 worked out at 64.8 nM. The solubility in [11] was 50 µM.

In the case of `N[C@@H](CC(=O)N1CCCN(CC(=O)NCCOCCOCCOCCOCCOCCOCCNC(=O)CCc2cc(Cl)c(Oc3ccsc3C(=O)N3CCN(C4CC4)c4ccccc43)cc2Cl)C(=O)C1Cc1ccccc1)Cc1cc(F)c(F)cc1F` (mixture of isomers), the results for the EC50 in data set [8] and in [9] were 3.7 nM and 2.3 nM, respectively. In addition, in data set [10], the IC50 turned out to be 112 nM. The compound further came in with a solubility in [11] of 20 µM.

With `CC1C(=O)N(CC(=O)NCCOCCOCCOCCOCCOCCNC(=O)CCc2cc(Cl)c(Oc3ccsc3C(=O)N3CCN(C4CC4)c4ccccc43)cc2Cl)CCCN1C(=O)C[C@H](N)Cc1cc(F)c(F)cc1F` (mixture of isomers), the EC50 in [8] amounted to 2.5 nM; in [9], 2.3 nM. The IC50 in [10] came to 57.5 nM. The compound also came in with a solubility in data set [11] of 50 µM.

Regarding `N[C@@H](CC(=O)N1CCCNC(=O)C1Cc1ccccc1)Cc1cc(F)c(F)cc1F` (mixture of isomers), the IC50 in [10] is 0.8 nM.

Take `O=C(O)CCc1cc(Cl)c(Oc2ccsc2C(=O)N2CCN(C3CC3)c3ccccc32)cc1Cl`: the 50% effective concentration (EC50) in data set [8] is 11.2 nM; in data set [9] it was 10.5 nM. Moreover, the IC50 in data set [10] is over 10000 nM.

On to `C.N[C@@H](CC(=O)N1CCCN(CC(=O)NCCOCCOCCOCCOCCOCCOCCOCCOCCNC(=O)CCc2cc(Cl)c(Oc3ccsc3C(=O)N3CCN(C4CC4)c4ccccc43)cc2Cl)C(=O)C1Cc1ccccc1)Cc1cc(F)c(F)cc1F` (mixture of isomers), for which the EC50 in data set [8] was 3.8 nM; in [9], 2.3 nM. Besides, the IC50 in data set [10] is 104 nM.

For `CC1C(=O)NCCCN1C(=O)C[C@H](N)Cc1cc(F)c(F)cc1F` (mixture of isomers), the EC50 in data set [8] and in [9] was over 1000 nM throughout. For the same compound, the IC50 in data set [10] was 10.4 nM.

As to `N[C@@H](CC(=O)N1CCCN(CC(=O)NCCOCCOCCOCCOCCOCCOCCOCCNC(=O)CCc2cc(Cl)c(Oc3ccsc3C(=O)N3CCN(C4CC4)c4ccccc43)cc2Cl)C(=O)C1Cc1ccccc1)Cc1cc(F)c(F)cc1F` (mixture of isomers), the EC50 in data set [8] turned out to be 3.6 nM; in data set [9], 2.1 nM. In addition, in [10], the IC50 stood at 103 nM. The compound further returned a solubility in [11] of 20 µM.

On to `N[C@@H](CC(=O)N1CCCN(CC(=O)NCCOCCOCCOCCOCCOCCNC(=O)CCc2cc(Cl)c(Oc3ccsc3C(=O)N3CCN(C4CC4)c4ccccc43)cc2Cl)C(=O)C1Cc1ccccc1)Cc1cc(F)c(F)cc1F` (mixture of isomers), for which the values for the EC50 in [8] and in data set [9] were 4.9 nM and 2.7 nM, respectively. In addition, in data set [10], the IC50 is 124 nM. This compound also came in with a solubility in [11] of 10 µM.

In the case of `CC1C(=O)N(CC(=O)NCCOCCOCCOCCNC(=O)CCc2cc(Cl)c(Oc3ccsc3C(=O)N3CCN(C4CC4)c4ccccc43)cc2Cl)CCCN1C(=O)C[C@H](N)Cc1cc(F)c(F)cc1F` (mixture of isomers), the EC50 in data set [8] was 4.5 nM; in [9], 4.3 nM. In addition, the 50% inhibitory concentration (IC50) in data set [10] is 119 nM.

With `CC1C(=O)N(CC(=O)NCCOCCOCCOCCOCCOCCOCCOCCNC(=O)CCc2cc(Cl)c(Oc3ccsc3C(=O)N3CCN(C4CC4)c4ccccc43)cc2Cl)CCCN1C(=O)C[C@H](N)Cc1cc(F)c(F)cc1F` (mixture of isomers), the EC50 in data set [8] turned out to be 2.8 nM; in data set [9], 2.1 nM. The IC50 in data set [10] is 54.8 nM. In [11], this compound registered a solubility of 50 µM.
